In the supplement of paper PMC10627819:

Experiments:
S. pneumoniae D39V [1] = test: Bliss interaction score (quartile over a dose matrix) (fitness difference); higher = more antagonism (negative = synergy)
Procedure, shortened: (§1)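 The Bliss score subtracts expected fitness, the product of the single-drug fitness values, from observed fitness. Fitness is plate-normalised OD595 at entry into stationary phase, relative to the robust no-drug mean and capped at 1, with single-drug fitness inferred from combinations. Summaries are quartiles over technical, biological and donor/recipient replicates.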

S. aureus DSM 20231 [2] = test: as above
Procedure, shortened: as §1

B. subtilis 168 [3] = test: as above
Procedure, shortened: as §1

S. aureus Newman [4] = test: as above
Procedure, shortened: as §1

S. pneumoniae D39V [5] = test: fitness (endpoint OD595 vs no drug) (fraction); higher = more growth
Procedure, shortened: (§2)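 Fitness compares growth at the stationary-phase transition with the robust mean of no-drug control wells, as a ratio of optical densities. The ratio is capped at 1. Wells of 384-well plates held 30 µl, or 55 µl for S. pneumoniae, inoculated at OD595 0.01. Readings at OD595 every 30 min for 14 h at 37 °C were corrected against the first reading.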

S. aureus DSM 20231 [6] = test: as above
Procedure, shortened: as §2

B. subtilis 168 [7] = test: as above
Procedure, shortened: as §2

S. aureus Newman [8] = test: as above
Procedure, shortened: as §2
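Wherever Bliss interaction score (quartile over a dose matrix) is given: first quartile when negative (synergy) and third quartile when positive (antagonism).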

COc1cccc2c1C(=O)c1c(O)c3c(c(O)c1C2=O)C[C@@](O)(C(=O)CO)C[C@@H]3O[C@H]1C[C@H](N)[C@H](O)[C@H](C)O1 [Doxorubicin] + CC1=C\[C@@H](O)CC(=O)Cc2nc(co2)C(=O)N2CCC=C2C(=O)O[C@H](C(C)C)[C@H](C)/C=C/C(=O)NC\C=C\1 [Virginiamycin M1]
Details	Bliss interaction score
B. subtilis 168 [3]	0.0827
S. aureus DSM 20231 [2]	-0.0467
S. aureus Newman [4]	-0.0655
S. pneumoniae D39V [1]	0.0614

fitness, one replicate
Details	first compound 0.25 µg/mL	first compound 0.5 µg/mL	first compound 0.625 µg/mL	first compound 1 µg/mL	first compound 1.25 µg/mL	first compound 2.5 µg/mL
S. aureus DSM 20231 [6], partner 0.5 µg/mL	–	–	0.873	–	0.803	0.706
S. aureus DSM 20231 [6], partner 1 µg/mL	–	–	0.769	–	0.708	0.761
S. aureus Newman [8], partner 0.5 µg/mL	–	–	0.81	–	0.809	0.703
S. aureus Newman [8], partner 1 µg/mL	–	–	0.924	–	0.871	0.793
S. aureus Newman [8], partner 2 µg/mL	–	–	0.837	–	0.696	0.664
S. pneumoniae D39V [5], partner 0.15 µg/mL	0.86	0.865	–	0.911	–	–
S. pneumoniae D39V [5], partner 0.3 µg/mL	0.823	0.836	–	0.888	–	–

fitness
Details	first compound 0.25 µg/mL	first compound 0.5 µg/mL	first compound 0.625 µg/mL	first compound 1 µg/mL	first compound 1.25 µg/mL	first compound 2.5 µg/mL
B. subtilis 168 [7], partner 0.0625 µg/mL	–	–	0.975	–	0.901	0.653
B. subtilis 168 [7], partner 0.125 µg/mL	–	–	0.939	–	0.904	0.639
B. subtilis 168 [7], partner 0.25 µg/mL	–	–	0.96	–	0.911	0.7
S. aureus DSM 20231 [6], partner 0.0625 µg/mL	–	–	0.874	–	0.872	0.779
S. aureus DSM 20231 [6], partner 0.125 µg/mL	–	–	0.944	–	0.903	0.82
S. aureus DSM 20231 [6], partner 0.25 µg/mL	–	–	0.873	–	0.862	0.802
S. aureus Newman [8], partner 0.0625 µg/mL	–	–	0.76	–	0.766	0.768
S. aureus Newman [8], partner 0.125 µg/mL	–	–	0.795	–	0.802	0.756
S. aureus Newman [8], partner 0.25 µg/mL	–	–	0.788	–	0.784	0.746
S. pneumoniae D39V [5], partner 0.5 µg/mL	0.964	0.961	–	0.969	–	–
S. pneumoniae D39V [5], partner 1 µg/mL	0.997	≥ 1	–	0.951	–	–
S. pneumoniae D39V [5], partner 2 µg/mL	0.92	0.9	–	0.898	–	–

COc1ccc(C[C@H](N)C(=O)N[C@H]2[C@@H](O)[C@H](n3cnc4c(N(C)C)ncnc43)O[C@@H]2CO)cc1 [Puromycin] + CC1=C\[C@@H](O)CC(=O)Cc2nc(co2)C(=O)N2CCC=C2C(=O)O[C@H](C(C)C)[C@H](C)/C=C/C(=O)NC\C=C\1 [Virginiamycin M1]
Details	Bliss interaction score
B. subtilis 168 [3]	0.0535
S. aureus DSM 20231 [2]	0.0808
S. aureus Newman [4]	0.0481
S. pneumoniae D39V [1]	0.0811

one replicate
Details	fitness
S. aureus DSM 20231 [6], first compound 0.39 µg/mL, partner 0.5 µg/mL	0.858
S. aureus DSM 20231 [6], first compound 0.39 µg/mL, partner 1 µg/mL	0.798
S. aureus DSM 20231 [6], first compound 0.78 µg/mL, partner 0.5 µg/mL	0.924
S. aureus DSM 20231 [6], first compound 0.78 µg/mL, partner 1 µg/mL	0.917
S. aureus DSM 20231 [6], first compound 1.56 µg/mL, partner 0.5 µg/mL	0.939
S. aureus DSM 20231 [6], first compound 1.56 µg/mL, partner 1 µg/mL	0.941
S. aureus DSM 20231 [6], first compound 3.12 µg/mL, partner 0.0625 µg/mL	0.99
S. aureus DSM 20231 [6], first compound 3.12 µg/mL, partner 0.125 µg/mL	0.996
S. aureus DSM 20231 [6], first compound 3.12 µg/mL, partner 0.25 µg/mL	0.931
S. aureus DSM 20231 [6], first compound 6.24 µg/mL, partner 0.0625 µg/mL	0.67
S. aureus DSM 20231 [6], first compound 6.24 µg/mL, partner 0.125 µg/mL	0.706
S. aureus DSM 20231 [6], first compound 6.24 µg/mL, partner 0.25 µg/mL	0.851
S. aureus Newman [8], first compound 0.39 µg/mL, partner 0.5 µg/mL	0.877
S. aureus Newman [8], first compound 0.39 µg/mL, partner 1 µg/mL	≥ 1
S. aureus Newman [8], first compound 0.39 µg/mL, partner 2 µg/mL	0.907
S. aureus Newman [8], first compound 0.78 µg/mL, partner 0.5 µg/mL	0.948
S. aureus Newman [8], first compound 0.78 µg/mL, partner 1 µg/mL	0.988
S. aureus Newman [8], first compound 0.78 µg/mL, partner 2 µg/mL	0.87
S. aureus Newman [8], first compound 1.56 µg/mL, partner 0.5 µg/mL	0.942
S. aureus Newman [8], first compound 1.56 µg/mL, partner 1 µg/mL	≥ 1
S. aureus Newman [8], first compound 1.56 µg/mL, partner 2 µg/mL	0.919
S. pneumoniae D39V [5], first compound 1 µg/mL, partner 0.15 µg/mL	≥ 1
S. pneumoniae D39V [5], first compound 1 µg/mL, partner 0.3 µg/mL	≥ 1
S. pneumoniae D39V [5], first compound 2 µg/mL, partner 0.15 µg/mL	≥ 1
S. pneumoniae D39V [5], first compound 2 µg/mL, partner 0.3 µg/mL	0.983
S. pneumoniae D39V [5], first compound 4 µg/mL, partner 0.15 µg/mL	0.981
S. pneumoniae D39V [5], first compound 4 µg/mL, partner 0.3 µg/mL	0.948

Details	fitness
B. subtilis 168 [7], first compound 0.39 µg/mL, partner 0.0625 µg/mL	0.975
B. subtilis 168 [7], first compound 0.39 µg/mL, partner 0.125 µg/mL	0.947
B. subtilis 168 [7], first compound 0.39 µg/mL, partner 0.25 µg/mL	≥ 1
B. subtilis 168 [7], first compound 0.78 µg/mL, partner 0.0625 µg/mL	0.94
B. subtilis 168 [7], first compound 0.78 µg/mL, partner 0.125 µg/mL	0.908
B. subtilis 168 [7], first compound 0.78 µg/mL, partner 0.25 µg/mL	0.963
B. subtilis 168 [7], first compound 1.56 µg/mL, partner 0.0625 µg/mL	0.948
B. subtilis 168 [7], first compound 1.56 µg/mL, partner 0.125 µg/mL	0.884
B. subtilis 168 [7], first compound 1.56 µg/mL, partner 0.25 µg/mL	0.87
S. aureus DSM 20231 [6], first compound 0.39 µg/mL, partner 0.0625 µg/mL	0.981
S. aureus DSM 20231 [6], first compound 0.39 µg/mL, partner 0.125 µg/mL	≥ 1
S. aureus DSM 20231 [6], first compound 0.39 µg/mL, partner 0.25 µg/mL	0.926
S. aureus DSM 20231 [6], first compound 0.78 µg/mL, partner 0.125 µg/mL	0.807
S. aureus DSM 20231 [6], first compound 0.78 µg/mL, partner 0.25 µg/mL	0.978
S. aureus DSM 20231 [6], first compound 1.56 µg/mL, partner 0.0625 µg/mL	0.998
S. aureus DSM 20231 [6], first compound 1.56 µg/mL, partner 0.125 µg/mL	≥ 1
S. aureus DSM 20231 [6], first compound 1.56 µg/mL, partner 0.25 µg/mL	0.98
S. aureus Newman [8], first compound 0.39 µg/mL, partner 0.0625 µg/mL	0.988
S. aureus Newman [8], first compound 0.39 µg/mL, partner 0.125 µg/mL	≥ 1
S. aureus Newman [8], first compound 0.39 µg/mL, partner 0.25 µg/mL	0.999
S. aureus Newman [8], first compound 0.78 µg/mL, partner 0.0625 µg/mL	0.986
S. aureus Newman [8], first compound 0.78 µg/mL, partner 0.125 µg/mL	≥ 1
S. aureus Newman [8], first compound 0.78 µg/mL, partner 0.25 µg/mL	0.984
S. aureus Newman [8], first compound 1.56 µg/mL, partner 0.0625 µg/mL	0.998
S. aureus Newman [8], first compound 1.56 µg/mL, partner 0.125 µg/mL	0.977
S. aureus Newman [8], first compound 1.56 µg/mL, partner 0.25 µg/mL	0.986
S. pneumoniae D39V [5], first compound 1 µg/mL, partner 0.5 µg/mL	0.976
S. pneumoniae D39V [5], first compound 1 µg/mL, partner 1 µg/mL	0.952
S. pneumoniae D39V [5], first compound 1 µg/mL, partner 2 µg/mL	0.908
S. pneumoniae D39V [5], first compound 2 µg/mL, partner 0.5 µg/mL	0.986
S. pneumoniae D39V [5], first compound 2 µg/mL, partner 1 µg/mL	0.969
S. pneumoniae D39V [5], first compound 2 µg/mL, partner 2 µg/mL	0.886
S. pneumoniae D39V [5], first compound 4 µg/mL, partner 0.5 µg/mL	0.847
S. pneumoniae D39V [5], first compound 4 µg/mL, partner 1 µg/mL	0.783
S. pneumoniae D39V [5], first compound 4 µg/mL, partner 2 µg/mL	0.804
